Reference: ChEMBL document CHEMBL3885881, “DrugMatrix”

Organism: Rattus norvegicus
Assay: DrugMatrix - Regimen: Daily Repeat
Type: toxicity, organism-based, Sprague-Dawley
Design: regimen Daily Repeat, gender Male, age 6-8 weeks
Details: in vivo, po, route oral GAVAGE, […]; for ABSOLUTE BASOPHIL / ABSOLUTE EOSINOPHIL / ABSOLUTE LYMPHOCYTE / ABSOLUTE MONOCYTE / ABSOLUTE SEGMENTED NEUTROPHIL / BASOPHIL / EOSINOPHIL / ERYTHROCYTE COUNT / HEMATOCRIT / HEMOGLOBIN / LEUKOCYTE COUNT / LYMPHOCYTE / MEAN CORPUSCULAR HEMOGLOBIN / MEAN CORPUSCULAR HEMOGLOBIN CONCENTRATION / MEAN CORPUSCULAR VOLUME / MONOCYTE / NEUTROPHIL / NUCLEATED RED BLOOD CELLS / PLATELET COUNT: tissue Blood; for ALANINE AMINOTRANSFERASE / ALBUMIN / ALKALINE PHOSPHATASE / ASPARTATE AMINOTRANSFERASE / BLOOD UREA NITROGEN / CARBON DIOXIDE / CHLORIDE / CHOLESTEROL / CREATINE PHOSPHOKINASE / CREATININE / GLUCOSE / LACTATE DEHYDROGENASE / LIPASE / PHOSPHORUS / POTASSIUM / SODIUM / TOTAL BILIRUBIN / TOTAL PROTEIN / URIC ACID: tissue Plasma
[1] = 0 mg/kg, 72 h, dose level Control, time 3 day
[2] = 0 mg/kg, 120 h, dose level Control, time 5 day
[3] = 100 mg/kg, 72 h, dose level Low, time 3 day

CCCC[C@@H](CC)COC(=O)c1ccccc1C(=O)OC[C@@H](CC)CCCC [BIS(2-ETHYLHEXYL)PHTHALATE]
ABSOLUTE BASOPHIL [1]: 0 CELLS/uL | ABSOLUTE EOSINOPHIL [1]: 13.67 CELLS/uL | ABSOLUTE LYMPHOCYTE [1]: 10069.5 CELLS/uL | ABSOLUTE MONOCYTE [1]: 50 CELLS/uL | ABSOLUTE SEGMENTED NEUTROPHIL [1]: 516.83 CELLS/uL | BASOPHIL [1]: 0% | EOSINOPHIL [1]: 0.17% | ERYTHROCYTE COUNT [1]: 5.44 x10E6/uL | HEMATOCRIT [1]: 33.88% | HEMOGLOBIN [1]: 13.23 G/DL | LEUKOCYTE COUNT [1]: 10.65 x10E3/uL | LYMPHOCYTE [1]: 94.67% | MEAN CORPUSCULAR HEMOGLOBIN [1]: 24.37 pg | MEAN CORPUSCULAR HEMOGLOBIN CONCENTRATION [1]: 39.05 G/DL | MEAN CORPUSCULAR VOLUME [1]: 62.38 fL | MONOCYTE [1]: 0.67% | NEUTROPHIL [1]: 4.5% | NUCLEATED RED BLOOD CELLS [1]: 0.33 /100WBC | PLATELET COUNT [1]: 414.5 x10E3/uL | ALANINE AMINOTRANSFERASE [1]: 72 u/L | ALBUMIN [1]: 3.75 G/DL | ALKALINE PHOSPHATASE [1]: 375 u/L | ASPARTATE AMINOTRANSFERASE [1]: 87.5 u/L | BLOOD UREA NITROGEN [1]: 14 mg/dL | CARBON DIOXIDE [1]: 27.5 mmol/L | CHLORIDE [1]: 95.83 MEQ/L | CHOLESTEROL [1]: 68.5 mg/dL | CREATINE PHOSPHOKINASE [1]: 284.33 u/L | CREATININE [1]: 0.16 mg/dL | GLUCOSE [1]: 156.67 mg/dL | LACTATE DEHYDROGENASE [1]: 101.83 u/L | LIPASE [1]: 9.67 u/L | PHOSPHORUS [1]: 10.33 mg/dL | POTASSIUM [1]: 5.22 MEQ/L | SODIUM [1]: 137.67 MEQ/L | TOTAL BILIRUBIN [1]: 0.13 mg/dL | TOTAL PROTEIN [1]: 5.43 G/DL | URIC ACID [1]: 0.8 mg/dL | ABSOLUTE BASOPHIL [2]: 0 CELLS/uL | ABSOLUTE EOSINOPHIL [2]: 20.67 CELLS/uL | ABSOLUTE LYMPHOCYTE [2]: 11518.33 CELLS/uL | ABSOLUTE MONOCYTE [2]: 47 CELLS/uL | ABSOLUTE SEGMENTED NEUTROPHIL [2]: 614 CELLS/uL | BASOPHIL [2]: 0% | EOSINOPHIL [2]: 0.17% | ERYTHROCYTE COUNT [2]: 5.61 x10E6/uL | HEMATOCRIT [2]: 34.25% | HEMOGLOBIN [2]: 13.38 G/DL | LEUKOCYTE COUNT [2]: 12.2 x10E3/uL | LYMPHOCYTE [2]: 94.33% | MEAN CORPUSCULAR HEMOGLOBIN [2]: 23.83 pg | MEAN CORPUSCULAR HEMOGLOBIN CONCENTRATION [2]: 39.08 G/DL | MEAN CORPUSCULAR VOLUME [2]: 61.03 fL | MONOCYTE [2]: 0.33% | NEUTROPHIL [2]: 5.17% | NUCLEATED RED BLOOD CELLS [2]: 0 /100WBC | PLATELET COUNT [2]: 941.83 x10E3/uL | ALANINE AMINOTRANSFERASE [2]: 68.83 u/L | ALBUMIN [2]: 4.12 G/DL | ALKALINE PHOSPHATASE [2]: 492.67 u/L | ASPARTATE AMINOTRANSFERASE [2]: 83.33 u/L | BLOOD UREA NITROGEN [2]: 14 mg/dL | CARBON DIOXIDE [2]: 37 mmol/L | CHLORIDE [2]: 98.67 MEQ/L | CHOLESTEROL [2]: 56.5 mg/dL | CREATINE PHOSPHOKINASE [2]: 167.33 u/L | CREATININE [2]: 0.17 mg/dL | GLUCOSE [2]: 157.5 mg/dL | LACTATE DEHYDROGENASE [2]: 104.83 u/L | LIPASE [2]: 10 u/L | PHOSPHORUS [2]: 10.43 mg/dL | POTASSIUM [2]: 5.46 MEQ/L | SODIUM [2]: 143.87 MEQ/L | TOTAL BILIRUBIN [2]: 0.17 mg/dL | TOTAL PROTEIN [2]: 5.72 G/DL | URIC ACID [2]: 0.85 mg/dL | ABSOLUTE BASOPHIL [3]: 0 CELLS/uL | ABSOLUTE EOSINOPHIL [3]: 23 CELLS/uL | ABSOLUTE LYMPHOCYTE [3]: 7479.67 CELLS/uL | ABSOLUTE MONOCYTE [3]: 44.67 CELLS/uL | ABSOLUTE SEGMENTED NEUTROPHIL [3]: 819.33 CELLS/uL | BASOPHIL [3]: 0% | EOSINOPHIL [3]: 0.33% | ERYTHROCYTE COUNT [3]: 5.6 x10E6/uL | HEMATOCRIT [3]: 35.03% | HEMOGLOBIN [3]: 13.73 G/DL | LEUKOCYTE COUNT [3]: 8.37 x10E3/uL | LYMPHOCYTE [3]: 89% | MEAN CORPUSCULAR HEMOGLOBIN [3]: 24.5 pg | MEAN CORPUSCULAR HEMOGLOBIN CONCENTRATION [3]: 39.17 G/DL | MEAN CORPUSCULAR VOLUME [3]: 62.6 fL | MONOCYTE [3]: 0.67% | NEUTROPHIL [3]: 10% | NUCLEATED RED BLOOD CELLS [3]: 0 /100WBC | PLATELET COUNT [3]: 750.33 x10E3/uL | ALANINE AMINOTRANSFERASE [3]: 89.33 u/L | ALBUMIN [3]: 3.97 G/DL | ALKALINE PHOSPHATASE [3]: 408.33 u/L | ASPARTATE AMINOTRANSFERASE [3]: 88.67 u/L | BLOOD UREA NITROGEN [3]: 14 mg/dL | CARBON DIOXIDE [3]: 26.67 mmol/L | CHLORIDE [3]: 96 MEQ/L | CHOLESTEROL [3]: 60 mg/dL | CREATINE PHOSPHOKINASE [3]: 210.67 u/L | CREATININE [3]: 0.11 mg/dL | GLUCOSE [3]: 148.33 mg/dL | LACTATE DEHYDROGENASE [3]: 81 u/L | LIPASE [3]: 10.33 u/L | PHOSPHORUS [3]: 10 mg/dL | POTASSIUM [3]: 5.11 MEQ/L | SODIUM [3]: 138.1 MEQ/L | TOTAL BILIRUBIN [3]: 0.17 mg/dL | TOTAL PROTEIN [3]: 5.5 G/DL | URIC ACID [3]: 0.63 mg/dL
